Assay results: paper PMC10089224, “A macrocyclic peptide inhibitor traps MRP1 in a catalytically incompetent conformation” (Proceedings of the National Academy of Sciences of the …, 2023)
“Also recorded” adds a separate entry of the source. Where a SMILES comes first, the peptide text is derived from it. Bridges are numbered along the chain shown (N, C = ends). [ ]: non-standard residue; d: D form.

How the values were obtained:
bMRP1 = target: T1, bMRP1 (Bos taurus, UniProt Q8HXQ5); experiment: ATPase activity of detergent-solubilized bMRP1, inhibition by CPI1 (basal and LTC4-stimulated); assay type: biochemical, bovine
T1 construct: eGFP (C, cleaved yes); PreScission protease site (remnant after cleavage) (C); made in house; host or cells: HEK293S GnTI- cells infected with baculovirus (BacMam) made in Sf9 cells
T1 sequence (Q8HXQ5 whole entry): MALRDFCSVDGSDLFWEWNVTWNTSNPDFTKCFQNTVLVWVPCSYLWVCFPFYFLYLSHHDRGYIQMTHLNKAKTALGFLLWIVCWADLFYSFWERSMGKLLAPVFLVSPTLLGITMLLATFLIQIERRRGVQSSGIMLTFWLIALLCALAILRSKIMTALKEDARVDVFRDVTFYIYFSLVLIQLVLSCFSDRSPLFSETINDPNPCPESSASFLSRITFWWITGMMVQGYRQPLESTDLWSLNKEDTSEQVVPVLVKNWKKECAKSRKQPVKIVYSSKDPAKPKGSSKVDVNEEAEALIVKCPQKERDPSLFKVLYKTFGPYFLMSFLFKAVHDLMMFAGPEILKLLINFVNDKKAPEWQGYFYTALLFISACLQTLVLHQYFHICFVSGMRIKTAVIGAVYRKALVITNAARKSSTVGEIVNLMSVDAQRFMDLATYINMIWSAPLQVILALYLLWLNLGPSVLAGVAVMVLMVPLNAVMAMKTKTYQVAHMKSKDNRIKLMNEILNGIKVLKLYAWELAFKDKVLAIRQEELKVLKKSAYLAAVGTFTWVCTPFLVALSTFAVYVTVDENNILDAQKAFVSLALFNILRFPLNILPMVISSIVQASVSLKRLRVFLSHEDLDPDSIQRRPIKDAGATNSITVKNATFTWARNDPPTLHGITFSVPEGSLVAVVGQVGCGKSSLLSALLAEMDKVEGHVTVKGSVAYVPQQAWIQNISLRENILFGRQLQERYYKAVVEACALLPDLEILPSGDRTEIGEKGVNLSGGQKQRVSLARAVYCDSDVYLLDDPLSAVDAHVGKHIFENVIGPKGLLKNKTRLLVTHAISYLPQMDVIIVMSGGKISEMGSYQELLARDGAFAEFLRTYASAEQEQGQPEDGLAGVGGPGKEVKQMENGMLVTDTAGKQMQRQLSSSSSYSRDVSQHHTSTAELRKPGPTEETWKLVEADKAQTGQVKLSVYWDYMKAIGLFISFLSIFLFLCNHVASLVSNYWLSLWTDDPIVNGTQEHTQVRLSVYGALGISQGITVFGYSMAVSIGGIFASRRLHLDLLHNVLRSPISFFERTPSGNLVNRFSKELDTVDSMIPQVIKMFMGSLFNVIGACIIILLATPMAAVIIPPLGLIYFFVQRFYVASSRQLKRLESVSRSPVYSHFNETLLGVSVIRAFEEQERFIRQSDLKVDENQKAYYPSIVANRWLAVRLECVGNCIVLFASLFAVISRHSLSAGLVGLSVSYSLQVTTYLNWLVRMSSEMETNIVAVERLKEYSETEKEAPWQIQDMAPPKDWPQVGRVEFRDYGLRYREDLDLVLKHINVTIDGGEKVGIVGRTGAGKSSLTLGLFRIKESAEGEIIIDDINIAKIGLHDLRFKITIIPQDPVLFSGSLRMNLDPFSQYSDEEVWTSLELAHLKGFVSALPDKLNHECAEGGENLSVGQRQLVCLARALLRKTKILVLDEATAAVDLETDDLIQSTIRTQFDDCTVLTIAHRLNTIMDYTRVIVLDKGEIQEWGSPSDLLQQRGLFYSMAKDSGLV
Procedure: All values reported as the mean ± standard error (SE) of three separate measurements. The statistical significance was calculated using unpaired, parametric, two-sided t tests. Labels: not significant (n.s.), P < 0.05 (*), P < 0.01 (**), P < 0.001 (***) P < 0.0001 (****). […] Rates of ATP hydrolysis were normalized to maximal activity. Data were fit to a modified version of the quadratic binding equation to account for free ligand depletion (Materials and Methods).
All protein purification steps were performed on ice or at 4 °C. Thawed cell pellets were resuspended with a handheld homogenizer (Polytron PT1200E) in a solution of 300 mM NaCl, 50 mM HEPES pH 8.0, 2 mM MgCl2, 2 mM dithiothreitol (DTT), and 20% glycerol with DNase I and protease inhibitors (1 µg/mL aprotinin, 0.6 mM benzamidine, 1 µg/mL leupeptin, 1 µg/mL pepstatin A, 1 mM phenylmethylsulfonyl fluoride, and 100 µg/mL soy trypsin inhibitor). Membranes were solubilized for 1.5 h by addition of 2% lauryl maltose neopentyl glycol and 0.2% cholesteryl hemisuccinate, after which insoluble material was removed by centrifugation for 40 min at 75,000 × g. Supernatant was mixed with GFP nanobody-conjugated Sepharose 4 Fast Flow resin (GE Healthcare) for 1.5 h, after which the slurry was packed into a column and washed with a solution of 0.06% digitonin, 150 mM NaCl, 50 mM HEPES pH 8.0, 2 mM MgCl2, 2 mM DTT, and 5% glycerol. PreScission protease was added to the column at a concentration of 0.35 mg/mL for 3 h to liberate MRP1 or Pgp from the GFP-nanobody resin. Eluate was passed through a glutathione sepharose resin to remove PreScission protease and concentrated with a 100 kDa molecular weight cutoff centrifugal filter. Concentrate was loaded onto a GE Healthcare Superose 6 size exclusion column equilibrated in 0.06% digitonin, 150 mM KCl, 50 mM Tris pH 8.0, 2 mM MgCl2, and 2 mM DTT. Peak fractions were collected, pooled, and concentrated for ATPase assays or freezing cryo-EM grids.
ATPase activity was measured by recording the rate of NADH consumption during ATP regeneration from ADP. […] ATPase activity was quantified by calculating the mean and SEM of at least three separate measurements from a single protein purification for each of bMRP1, hMRP1, and hPgp. Data were fit by nonlinear regression to the Michaelis–Menten equation using GraphPad Prism (Dotmatics).
0 = [R]tot × [L]tot - ([L]tot + [R]tot + Ki)[R·L] + [R·L]^2,
Range normalization factor = (Vmax - Vmin)

Pgp = experiment: ATPase activity of detergent-solubilized Pgp, inhibition by CPI1; assay type: biochemical, human; details: Pgp 0.5 µM, 4 mM ATP, CPI1 25-fold molar excess; mean ± SE of three separate measurements
Procedure: (§1) Fig. 1. Identification of an MRP1-specific inhibitor. (A) Selection strategy for novel cyclic peptide MRP1 ligands. eGFP: enhanced green fluorescent protein; Nb: anti-eGFP nanobody. (B) CPI1 composition. The first residue in the sequence (Ac^DY1, yellow) is covalently bonded to the 17th residue (C17, green) via a thioether linkage. […] All values reported as the mean ± standard error (SE) of three separate measurements. The statistical significance was calculated using unpaired, parametric, two-sided t tests. Labels: not significant (n.s.), P < 0.05 (*), P < 0.01 (**), P < 0.001 (***) P < 0.0001 (****). […] (D) Dose–response curves of the basal and LTC4-stimulated ATPase activity of bMRP1. Rates of ATP hydrolysis were normalized to maximal activity. Data were fit to a modified version of the quadratic binding equation to account for free ligand depletion (Materials and Methods).
(§2) Bovine and human MRP1, as well as human Pgp, were expressed and purified as described previously. […]
(§3) ATPase activity was measured by recording the rate of NADH consumption during ATP regeneration from ADP. […] NADH consumption was measured by monitoring the rate of NADH fluorescence depletion (λex/λem 340/445 nm) using an Infinite M1000 microplate reader (Tecan) at 28 °C. […]

hMRP1 = experiment: ATPase activity of detergent-solubilized hMRP1, inhibition by CPI1; assay type: biochemical, human; details: Fig. 1C: 1 µM hMRP1, 4 mM ATP, CPI1 25-fold molar excess
Procedure: as §1, §2, §3

P-glycoprotein (Pgp) = details: ref [26]–[28]; cited from earlier work
Source text: Abrogation of cancer drug resistance by pharmacological inhibition of MRP1 has long been pursued ([10]). […] However, the majority of available MRP1 inhibitors are repurposed from other drug discovery efforts and thus have inherent off-target issues ([24], [25]).

SMILES	Ki (bMRP1)	affinity of CPI1 for MRP1 (bMRP1; approximate, Fig. 1D, compared with LTC4)	inhibition of ATPase activity (in words) (bMRP1; bMRP1, Fig. 1C: 1 µM bMRP1, 4 mM ATP, CPI1 25-fold molar excess)	mode of inhibition (in words) (bMRP1; with respect to LTC4, inferred from shared binding site in structure and affinity)	inhibition of Pgp (in words) (Pgp)	inhibition of ATPase activity (in words) (hMRP1)	inhibition of P-glycoprotein (in words) (P-glycoprotein (Pgp))
CC(C)C[C@@H]1NC(=O)[C@H](CC(N)=O)NC(=O)CNC(=O)[C@H](Cc2c[nH]c3ccccc23)NC(=O)[C@H](Cc2ccccc2)NC(=O)[C@@H](Cc2ccc(O)cc2)NC(=O)CSC[C@@H](C(=O)O)NC(=O)[C@H]([C@@H](C)O)NC(=O)[C@H](CO)NC(=O)[C@H](CC(=O)O)NC(=O)[C@H](Cc2ccccc2)NC(=O)[C@H](CCC(N)=O)NC(=O)[C@H](CCC(=O)O)NC(=O)[C@H](Cc2ccc(O)cc2)NC(=O)[C@H](Cc2ccc(O)cc2)NC(=O)[C@H](Cc2c[nH]c3ccccc23)NC(=O)[C@H](Cc2c[nH]cn2)NC1=O [CPI1] ({CH2CO}-[dY]FWGNLHWYYEQFDSTC-OH; thioether N-17; C-terminus assumed)	70 ± 29 nM	~ 100 nM	inhibited the ATPase activity of both human and bovine MRP1	potent competitive inhibitor of LTC4	only modest inhibition of Pgp when applied at a 25-fold molar excess; also recorded: minimal inhibition of a related multidrug transporter P-glycoprotein	robust inhibition of hMRP1 ATPase activity	
O=C(NCCCN1CCOCC1)c1cnn2c(-c3ccccc3)cc(-c3ccccc3)nc12 [Reversan]							also inhibit P-glycoprotein
